Laboratory results taken from ChEMBL document CHEMBL4825686, “HTS-based discovery and optimization of novel positive allosteric modulators of the α7 nicotinic acetylcholine receptor” (Eur J Med Chem, 2021).
≈ marks a conversion by molar mass, not a printed value.

Tests used:
[1] = biological target: Neuronal acetylcholine receptor subunit alpha-7 (Homo sapiens, UniProt P36544); assay: Positive allosteric modulator activity at human alpha7 nAChR expressed in Flp-In-HEK293 cells co-expressing RIC-3 assessed as potentiation of PNU282987-induced calcium influx measured after 10 mins by FLIPR assay; type: cell-based, Flp-In-293
[2] = Kinetic solubility of compound; type: physicochemical; conditions: read-out: Kinetic_solubility
[3] = Metabolic stability in human liver microsomes assessed as intrinsic clearance at 1 uM measured per mg protein upto 40 mins; type: ADME, Microsome; conditions: read-out: CLH
[4] = Metabolic stability in Wistar rat liver microsomes assessed as intrinsic clearance at 1 uM measured per mg protein upto 40 mins; type: ADME, Microsome; conditions: read-out: CLH
[5] = Metabolic stability in NMRI mouse liver microsomes assessed as intrinsic clearance at 1 uM measured per mg protein upto 40 mins; type: ADME, Microsome; conditions: read-out: CLH
[6] = Mutagenicity in Salmonella typhimurium TA100 in presence of rat liver S9 fraction by AMES test; type: toxicity, subcellular; conditions: salmonella enterica subsp. enterica serovar typhimurium
[7] = Mutagenicity in Salmonella typhimurium TA1535 in presence of rat liver S9 fraction by AMES test; type: toxicity, subcellular; conditions: salmonella enterica subsp. enterica serovar typhimurium
[8] = Mutagenicity in Salmonella typhimurium TA98 in presence of rat liver S9 fraction by AMES test; type: toxicity, subcellular; conditions: salmonella enterica subsp. enterica serovar typhimurium
[9] = Mutagenicity in Salmonella typhimurium TA98 in absence of rat liver S9 fraction by AMES test; type: toxicity; conditions: salmonella enterica subsp. enterica serovar typhimurium
[10] = Mutagenicity in Salmonella typhimurium TA100 in absence of rat liver S9 fraction by AMES test; type: toxicity; conditions: salmonella enterica subsp. enterica serovar typhimurium
[11] = Mutagenicity in Salmonella typhimurium TA1537 in presence of rat liver S9 fraction by AMES test; type: toxicity, subcellular; conditions: salmonella enterica subsp. enterica serovar typhimurium
[12] = Mutagenicity in Salmonella typhimurium TA1537 in absence of rat liver S9 fraction by AMES test; type: toxicity; conditions: salmonella enterica subsp. enterica serovar typhimurium
[13] = Mutagenicity in Escherichia coli WP2 uvrA in presence of rat liver S9 fraction by AMES test; type: toxicity, subcellular
[14] = Mutagenicity in Escherichia coli WP2 uvrA in absence of rat liver S9 fraction by AMES test; type: toxicity
[15] = Mutagenicity in Salmonella typhimurium TA1535 in absence of rat liver S9 fraction by AMES test; type: toxicity; conditions: salmonella enterica subsp. enterica serovar typhimurium

Neuronal acetylcholine receptor subunit alpha-7, sequence (P36544 whole entry): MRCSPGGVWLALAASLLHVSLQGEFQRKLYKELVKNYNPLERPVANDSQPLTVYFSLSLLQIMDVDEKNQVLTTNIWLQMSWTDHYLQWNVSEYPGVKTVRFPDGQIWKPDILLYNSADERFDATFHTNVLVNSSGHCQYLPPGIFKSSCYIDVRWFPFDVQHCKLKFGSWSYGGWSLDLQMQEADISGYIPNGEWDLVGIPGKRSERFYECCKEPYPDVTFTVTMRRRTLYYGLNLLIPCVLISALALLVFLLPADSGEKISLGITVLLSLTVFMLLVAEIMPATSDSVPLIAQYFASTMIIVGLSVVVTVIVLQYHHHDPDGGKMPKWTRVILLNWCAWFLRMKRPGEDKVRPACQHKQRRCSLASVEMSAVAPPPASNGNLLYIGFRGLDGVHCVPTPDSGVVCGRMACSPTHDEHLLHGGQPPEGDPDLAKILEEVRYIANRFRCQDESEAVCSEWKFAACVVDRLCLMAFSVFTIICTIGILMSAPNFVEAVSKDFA

COCC(C(=O)Nc1ccc2c(ccn2C)c1)N1CCC(Oc2ccc(C)cc2)CC1 (stereo unspecified)
EC50 ([1]; flp-in-293): Not Active

Cn1ccc2cc(CNC(=O)N3CC(COc4ccc(C#N)cc4)C3)ccc21
EC50 ([1]; read-out: EC50): 350 nM

Cc1ccc(CN2CCN(C(=O)C(=O)Nc3ccn4cccc4c3)CC2)cc1
solubility kinetic [2]: 5.6 µM (≈ 2.11 µg/mL)
EC50 ([1]; read-out: EC50): 3300 nM

Cc1ccc(Oc2ccc(C(=O)C(=O)Nc3ccc4c(ccn4C)c3)cc2)cc1
solubility kinetic [2]: 2 µM (≈ 0.769 µg/mL)
EC50 ([1]; read-out: EC50): 60 nM
microsomal CLint at 1 µM [3]: 34 µL/min/mg
microsomal CLint at 1 µM [4]: 48 µL/min/mg
microsomal CLint at 1 µM [5]: 46 µL/min/mg

Cc1ccc(CN2CCN(C(=O)C(=O)Nc3cc4ccn(C)c4cc3F)CC2)cc1
Activity [6]: Toxic
solubility kinetic [2]: 47.1 µM (≈ 19.2 µg/mL)
EC50 ([1]; read-out: EC50): 900 nM
Activity [7]: Toxic
Activity [8]: Toxic
Activity [9]: Toxic
Activity [10]: Toxic
Activity [11]: Toxic
Activity [12]: Toxic
Activity [13]: Toxic
Activity [14]: Toxic
Activity [15]: Toxic

Cc1ccc(CN2CCN(C(=O)C(=O)Nc3cc(F)c4[nH]ccc4c3)CC2)cc1
Activity [6]: Toxic
solubility kinetic [2]: 42.7 µM (≈ 16.8 µg/mL)
EC50 ([1]; read-out: EC50): 110 nM
microsomal CLint at 1 µM [3]: 17 µL/min/mg
microsomal CLint at 1 µM [4]: 130 µL/min/mg
microsomal CLint at 1 µM [5]: 151 µL/min/mg
Activity [7]: Toxic
Activity [8]: Toxic
Activity [9]: Toxic
Activity [10]: Toxic
Activity [11]: Toxic
Activity [12]: Toxic
Activity [13]: Toxic
Activity [14]: Toxic
Activity [15]: Toxic

Cc1ccc(O[C@H]2CC[C@H](C(=O)C(=O)Nc3ccc4c(ccn4C)c3)CC2)cn1
EC50 ([1]; read-out: EC50): 670 nM

Cc1ccc(OC2CCN(C(=O)NCc3ccc4c(ccn4C)c3)C2)cc1 (stereo unspecified)
EC50 ([1]; read-out: EC50): 170 nM

COc1ccc(OCC2CN(C(=O)NCc3ccc4c(ccn4C)c3)C2)cc1
EC50 ([1]; read-out: EC50): 60 nM

Cn1ccc2cc(NC(=O)C(=O)c3cnc(Oc4ccc(Cl)cc4)s3)ccc21
solubility kinetic [2]: 0.1 µM (≈ 0.0412 µg/mL)
EC50 ([1]; flp-in-293): Not Active

Cn1ccc2cc(CNC(=O)N3CC(COc4ccc(C(F)(F)F)cc4)C3)ccc21
EC50 ([1]; read-out: EC50): 80 nM

Cc1ccc(OCC2CCN(C(=O)NCc3ccc4c(ccn4C)c3)C2)cc1 (stereo unspecified)
EC50 ([1]; read-out: EC50): 280 nM

Cn1ccc2cc(CNC(=O)N3CC(COc4ccc(OC(F)(F)F)cc4)C3)ccc21
EC50 ([1]; read-out: EC50): 25 nM

Cc1ccc(CN2CCN(C(=O)c3nnc(-c4cccc5c4ccn5C)o3)CC2)cc1
EC50 ([1]; read-out: EC50): 660 nM

Cn1ccc2cc(CNC(=O)N3CC(COc4ccc(Cl)cc4)C3)ccc21
EC50 ([1]; read-out: EC50): 55 nM

Cc1ccc(OC2CN(C(=O)NCc3ccc4c(ccn4C)c3)C2)cc1
EC50 ([1]; read-out: EC50): 620 nM

Cc1ccc(CC2CCN(C(=O)C(=O)Nc3ccc4[nH]c(C)cc4c3)CC2)cc1
EC50 ([1]; flp-in-293): Not Active

Cc1ccc(CN2CCN(C(=O)C(=O)Nc3ccc4c(c3)CCN4C)CC2)cc1
solubility kinetic [2]: 95 µM (≈ 37.3 µg/mL)
EC50 ([1]; read-out: EC50): 820 nM
microsomal CLint at 1 µM [3]: 71 µL/min/mg
microsomal CLint at 1 µM [4]: 23 µL/min/mg
microsomal CLint at 1 µM [5]: 18 µL/min/mg

Cc1ccc(CN2CCN(C(=O)C(=O)Nc3cnc4c(ccn4C)c3)CC2)cc1
solubility kinetic [2]: 47.4 µM (≈ 18.6 µg/mL)
EC50 ([1]; read-out: EC50): 400 nM
microsomal CLint at 1 µM [3]: 0.3 µL/min/mg
microsomal CLint at 1 µM [4]: 56 µL/min/mg
microsomal CLint at 1 µM [5]: 46 µL/min/mg

Cn1nc(-c2ccc3c(ccn3C)c2)cc1C(=O)N1CCN(Cc2ccc(Cl)cc2)CC1
EC50 ([1]; read-out: EC50): 2500 nM

Cc1ccc(OCC2CN(C(=O)NCc3ccc4c(ccn4C)c3)C2)cc1
EC50 ([1]; read-out: EC50): 40 nM

Cc1ccc(CN2CCN(C(=O)NCc3ccc4c(ccn4C)c3)CC2)cc1
solubility kinetic [2]: 18.9 µM (≈ 7.12 µg/mL)
EC50 ([1]; read-out: EC50): 490 nM
microsomal CLint at 1 µM [3]: 24 µL/min/mg

Cc1ccc(OC2CCN(C(=O)C(=O)Nc3ccc4[nH]ccc4c3)CC2)cc1
EC50 ([1]; read-out: EC50): 260 nM

Cc1ccc(CN2CCCC(C(=O)NCc3ccc4c(ccn4C)c3)C2)cc1 (stereo unspecified)
EC50 ([1]; flp-in-293): Not Active

Cc1ccc(CN2CCC(c3nnc(C(=O)Nc4ccc5c(ccn5C)c4)o3)CC2)cc1
EC50 ([1]; flp-in-293): Not Active

Cc1ccc(Oc2cnc(C(=O)C(=O)Nc3ccc4c(ccn4C)c3)cn2)cc1
solubility kinetic [2]: 10 µM (≈ 3.86 µg/mL)
EC50 ([1]; read-out: EC50): 650 nM
microsomal CLint at 1 µM [3]: 90 µL/min/mg
microsomal CLint at 1 µM [4]: 127 µL/min/mg
microsomal CLint at 1 µM [5]: 156 µL/min/mg

Cc1ccc(CN2CCN(C(=O)C(=O)Nc3ccc4c(c3)c(F)cn4C)CC2)cc1
Activity [6]: Toxic
solubility kinetic [2]: 16.5 µM (≈ 6.74 µg/mL)
EC50 ([1]; read-out: EC50): 85 nM
microsomal CLint at 1 µM [3]: 21 µL/min/mg
microsomal CLint at 1 µM [4]: 192 µL/min/mg
microsomal CLint at 1 µM [5]: 214 µL/min/mg
Activity [7]: Toxic
Activity [8]: Toxic
Activity [9]: Toxic
Activity [10]: Toxic
Activity [11]: Toxic
Activity [12]: Toxic
Activity [13]: Toxic
Activity [14]: Toxic
Activity [15]: Toxic

Cc1ccc(CN2CCC(C(=O)C(=O)Nc3ccc4c(ccn4C)c3)CC2)cc1
EC50 ([1]; read-out: EC50): 600 nM

Cc1ccc(OC2CC3CCC(C2)N3C(=O)C(=O)Nc2ccc3[nH]ccc3c2)cc1 (stereo unspecified)
solubility kinetic [2]: 8.1 µM (≈ 3.27 µg/mL)
EC50 ([1]; flp-in-293): Not Active
microsomal CLint at 1 µM [3]: 12 µL/min/mg
microsomal CLint at 1 µM [4]: 61 µL/min/mg
microsomal CLint at 1 µM [5]: 40 µL/min/mg

Cc1ccc(CN2CCN(C(=O)C(=O)Nc3ccc4c(F)cn(C)c4c3)CC2)cc1
Activity [6]: Toxic
solubility kinetic [2]: 12.5 µM (≈ 5.11 µg/mL)
EC50 ([1]; read-out: EC50): 1400 nM
Activity [7]: Toxic
Activity [8]: Toxic
Activity [9]: Toxic
Activity [10]: Toxic
Activity [11]: Toxic
Activity [12]: Toxic
Activity [13]: Toxic
Activity [14]: Toxic
Activity [15]: Toxic

Cn1ccc2cc(CNC(=O)N3CC(COc4ccccc4)C3)ccc21
EC50 ([1]; read-out: EC50): 180 nM

Cc1ccc(CN2CCN(C(=O)C(=O)Nc3cnc4c(c3)c(F)cn4C)CC2)cc1
EC50 ([1]; read-out: EC50): 210 nM
microsomal CLint at 1 µM [3]: 12 µL/min/mg
microsomal CLint at 1 µM [4]: 41 µL/min/mg
microsomal CLint at 1 µM [5]: 39 µL/min/mg

Cc1ccc(Oc2ccc(C(=O)NCc3ccc4c(ccn4C)c3)cc2)cc1
EC50 ([1]; read-out: EC50): 40 nM

Cc1ccc(CN2C[C@@H](C)N(C(=O)C(=O)Nc3ccc4[nH]ccc4c3)C[C@@H]2C)cc1
solubility kinetic [2]: 14.9 µM (≈ 6.03 µg/mL)
EC50 ([1]; flp-in-293): Not Active
microsomal CLint at 1 µM [3]: 2 µL/min/mg

Cc1ccc(OC2CCN(C(=O)NCc3ccc4c(ccn4C)c3)CC2)cc1
EC50 ([1]; read-out: EC50): 210 nM

Cn1ccc2cc(CNC(=O)N3CC(COc4ccc(F)cc4)C3)ccc21
EC50 ([1]; read-out: EC50): 220 nM

Cc1ccc(OCC2CN(C(=O)C(=O)Nc3ccc4c(ccn4C)c3)C2)cc1
EC50 ([1]; read-out: EC50): 3000 nM

Cc1ccc(CC2CCN(C(=O)C(=O)Nc3ccc4[nH]ccc4c3)CC2)cc1
EC50 ([1]; read-out: EC50): 910 nM

Cc1ccc(CN2CCC(NC(=O)Nc3ccc4c(ccn4C)c3)CC2)cc1
EC50 ([1]; flp-in-293): Not Active

Cc1ccc(CN2CCN(C(=O)C(=O)Nc3ccc4c(c3)c(Cl)cn4C)CC2)cc1
Activity [6]: Toxic
solubility kinetic [2]: 6.8 µM (≈ 2.89 µg/mL)
EC50 ([1]; read-out: EC50): 420 nM
Activity [7]: Toxic
Activity [8]: Toxic
Activity [9]: Toxic
Activity [10]: Toxic
Activity [11]: Toxic
Activity [12]: Toxic
Activity [13]: Toxic
Activity [14]: Toxic
Activity [15]: Toxic

Cc1ccc(CN2CCN(C(=O)C(=O)NCc3ccc4c(ccn4C)c3)CC2)cc1
EC50 ([1]; flp-in-293): Not Active
